Data set [1] has as its system mixed neuronal culture. Nature of the data set: Neuronal LDH release from a mixed neuronal culture following incubation with NMDA. It counts as cell-based. The note with it: peptide at 1 μM; mixed neuronal culture incubated with NMDA. The text has this:
(§1) Despite the neuroprotective effectiveness of early generation apoE-mimetic peptides based on the primary structure of the apoE receptor-binding region, several factors have limited clinical translation. Among those factors are peptide size and production cost. In order to address these barriers, we developed a library of smaller, 5-amino acid peptides by linearizing the polar face of the receptor-binding region, which preserves peptide function without maintaining any primary sequence homology with the apoE receptor-binding region itself. Overall, 13 peptides were screened using in vitro assays of neuroinflammation and neuroprotection from excitotoxicity. […] The resulting smaller, 5-amino acid peptide increases the translational and therapeutic potential by reducing production cost, improving pharmacokinetics, and increasing CNS bioavailability. A comparison of the neuroprotective activity of CN-105 with VR-53, another pentapeptide from this library, as measured by LPS-induced inflammation from TNFα is shown in FIG. 1.

Data set [2] relates to severe, contusive SCI. Nature of the data set: Severe, contusive SCI: GFAP staining at injury epicenter. It counts as in vivo, mouse. The note with it: 0.05 mg/kg before and after SCI; 14 days after severe SCI. The method, then: FIG. 4 is a series of microscopy images showing the spinal cord sections at the injury epicenter stained for glial fibrillary acidic protein (GFAP) in a mouse after a severe SCI.
In a separate experiment, we delivered CN-105 (0.05 mg/kg) before and after SCI. To determine the effect of CN-105 treatment on neuropathology 14 days after severe SCI, we stained spinal cord sections at the injury epicenter for glial fibrillary acidic protein (GFAP; FIG. 4), which labels astrocytes, including those that form the glial scar around the injury. In this approach, spared tissue can be differentiated from the lesion core by the presence (spared tissue) or absence (lesion core) of GFAP staining (Duncan et al., 2018).

For data set [3], the system named is spinal cord transection in female Sprague-Dawley rats. As to the kind of experiment: Spinal cord transection T9/T10: acute cystometry and body weight. Type of data set: in vivo. The method, then: FIG. 5, panel A is a graph showing the number of non-voiding bladder contractions during acute cystometry in urethane-anesthetized, female Sprague-Dawley rats that received spinal cord transection between the 9th and 10th thoracic vertebrae, followed by CN-105 (2 mg/kg; sci_cn105) or 0.9% saline (sci_saline) treatments at 30 minutes and 3 hours post injury by IV injection, and then every 24 hours by IP for 7 days.
FIG. 5, panel B is a graph showing the bladder capacity measured from a single-fill cystometric trial in urethane-anesthetized, female Sprague-Dawley rats that received spinal cord transection between the 9th and 10th thoracic vertebrae. Three baseline measurements were taken, and then three measurements were taken after administration of CN-105 (2 mg/kg; cn105).
We conducted terminal acute experiments in urethane-anesthetized, female Sprague-Dawley rats to quantify the chronic and acute effects of CN-105 on urodynamic function. Rats (n=6) received spinal cord transection (TX) at T9/T10 followed by CN-105 (2.0 mg/kg) or 0.9% saline treatment at 30 min and 3 hours (IV), then every 24 hours (IP) for 7 days post-injury. Collection of body weight and void volumes occurred 2-3 times daily during manual bladder expression throughout the duration of the study. For acute cystometry experiments, we placed a catheter into the bladder dome to measure pressure and an electromyography paddle on the EUS to measure muscle activity. During a single-fill cystometric trial, we infused the bladder with saline at a constant rate (54-84 ml/hr) until a distension-evoked bladder contraction voided urine or until overflow incontinence occurred. Following 3 baseline cystometric trials, we performed 3 trials after administration of CN-105.

In data set [4] the test system is moderate, contusive SCI in adult, female C57BL/6J mice. As to the kind of experiment: Moderate, contusive SCI at T9: Basso Mouse Scale and von Frey hair test. It counts as in vivo. The protocol:
FIG. 3 are graphs showing the locomotor performance recovery (via Basso Mouse Scale) in adult, female C57BL/6J mice after a moderate, incomplete SCI at the 9th thoracic vertebrae. The mice were subsequently treated with either 2.0 mg/kg CN-105 or a control vehicle intravenously 30 minutes post-injury, and then intraperitoneally (IP) at 3 hours, 6 hours, and then every 24 hours post-injury for three days. FIG. 3, panel A is a graph showing the number of consistent, weight-supported hindlimb steps at 21-days post-injury; and FIG. 3, panel B is a graph showing the number of animals capable of performing coordinated locomotion at 21-days post-injury.
To determine whether CN-105 can improve sensorimotor outcomes following a moderate, incomplete SCI, we conducted experiments in adult, female C57BL/6J mice. Here, we delivered CN-105 (2.0 mg/kg) or Vehicle at 30 minutes (intravenous, IV), at 3 hours and 6 hours (intraperitoneal, IP), then every 24 hours (IP) for three days following a moderate, contusive SCI at the level of the 9th thoracic vertebrae (T9). We tracked locomotor recovery using the Basso Mouse Scale (BMS) (Basso et al., 2006) and assessed for neuropathic pain or allodynia using the von Frey hair test.

Data set [5] has as its system acquired brain injury. Conditions: in vivo; cited from earlier work.
A short description of data set [6]: Pharmacokinetic evaluation of radiolabeled CN-105 in uninjured male CD-1 mice. Conditions: single intravenous bolus 1.98 mg/kg. It counts as in vivo. The method, then:
FIG. 2, panel A is a graph showing the concentration of CN-105 in uninjured, male CD-1 mice after a single intravenous injection bolus dose of 1.98 mg/kg. FIG. 2, panel B is a graph showing the CN-105 retention in the brain and the spinal cord, calculated by dividing the concentration at 24 hours (C24) by the peak concentration (Cmax), 24 hours after a single intravenous injection bolus dose of 1.98 mg/kg. FIG. 2, panel C is a graph showing the total CN-105 exposure in the brain and the spinal cord, calculated using the area under the curve (AUC), for 48 hours after a single intravenous injection bolus dose of 1.98 mg/kg.
In collaboration with XenoBiotic Laboratories, Inc., we conducted a pharmacokinetic evaluation of radiolabled CN-105 in uninjured, male CD-1 mice. After a single intravenous bolus dose of CN-105 (1.98 mg/kg), peak concentration of CN-105 in the spinal cord occurred 30 minutes post injection (FIG. 2, panel A).
However, tissue retention of CN-105 at 24 hours (FIG. 2, panel B) and total exposure (FIG. 2, panel C) to CN-105 over 48 hours post injection was greatest in the spinal cord. Tissue retention at 24 hours post injection was quantified by dividing the CN-105 concentration at 24 hours (C24) by the peak CN-105 concentration (Cmax) and multiplying by 100.
The total exposure to CN-105 was calculated using the area under the curve (AUC) from the time of injection to 48 hours post injection (AUC0-48) and is expressed in nanogram equivalents*hour per gram. […] Increased CN-105 access to the spinal cord is consistent with greater passive permeability in the intact spinal cord (Winkler et al., 2012).

Data set [7] addresses α7 nicotinic acetylcholine receptors (Homo sapiens, UniProt P36544). The note with it: cited from earlier work.
Data set [8] has as its system mixed glial culture. As to the kind of experiment: LPS-induced TNFα release from mixed glia cells in vitro. Type of data set: cell-based.
Description: FIG. 1 is a graph showing the LPS-induced TNFα release from mixed glia cells in vitro from treatments with the CN-105 peptide and a comparison pentapeptide, VR-53.
as §1

[9] abbreviates: SCI rats, 2.0 mg/kg chronic treatment, cystometry.

The source of these data is patent US20240350578A1, “FUNCTIONAL OUTCOMES AFTER SPINAL CORD INJURY” (priority 2023, published 2024).

Sequence of α7 nicotinic acetylcholine receptors (P36544 23-502): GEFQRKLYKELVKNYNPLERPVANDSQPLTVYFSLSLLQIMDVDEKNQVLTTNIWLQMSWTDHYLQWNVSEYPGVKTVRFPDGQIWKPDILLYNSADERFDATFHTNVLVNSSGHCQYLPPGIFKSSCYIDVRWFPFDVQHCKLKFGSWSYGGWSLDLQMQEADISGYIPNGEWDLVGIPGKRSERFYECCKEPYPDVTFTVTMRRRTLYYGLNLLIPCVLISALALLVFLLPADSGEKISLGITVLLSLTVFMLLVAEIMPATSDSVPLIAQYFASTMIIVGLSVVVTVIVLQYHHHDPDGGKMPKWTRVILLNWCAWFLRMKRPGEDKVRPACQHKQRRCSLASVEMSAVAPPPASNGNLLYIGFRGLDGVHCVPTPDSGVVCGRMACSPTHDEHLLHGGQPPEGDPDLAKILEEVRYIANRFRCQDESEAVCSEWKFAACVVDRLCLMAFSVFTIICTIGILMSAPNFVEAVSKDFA

As to Ac-RSKRR-NH2 [RR-S-2], the “Neuroprotection (reduction in neuronal LDH release)” value in data set [1] was found to be 0.08%.
With Ac-VARRL-NH2 [VL-S-3], in data set [1], the “Neuroprotection (reduction in neuronal LDH release)” value was 11.50%.
Still for that read-out and setting: the same measure for Ac-RSKKL-NH2 [RL-S-3]: −20.80%; for Ac-VARKL-NH2 [VL-S-1]: 24.48%.
With Ac-VSKRR-NH2 [VR-53], the “Neuroprotection (reduction in neuronal LDH release)” value in data set [1] was determined as 7.03%.
As for Ac-RHKRR-NH2 [RR-S-1], the “Neuroprotection (reduction in neuronal LDH release)” value in data set [1] came to 7.5%.
On the same count and under the same terms, the same measure for Ac-ASHLRKLRKRLL-NH2 [AL-10-1]: −6.21%.
With Ac-VSKKR-NH2 [VR-54], the “Neuroprotection (reduction in neuronal LDH release)” value in data set [1] is −15.91%.
For Ac-VSRKR-NH2 [VR-52], the “Neuroprotection (reduction in neuronal LDH release)” value in data set [1] is 12.63%.
Take Ac-VSRRR-NH2 [CN-105]: the “Lesion size and tissue damage (GFAP staining)” value in data set [2] was “appeared to reduce the lesion size and tissue damage”. The Post-injury weight loss entry in data set [3] (2.0 mg/kg IV 30 min and 3 h, then IP every 24 h for 7 days) is “prevented post-injury weight loss”. In data set [3] (setting [9]), the “Bladder capacity (BC)” value was determined as 11.83 ± 2.00 mL, the “Non-voiding contractions (NVCs)” value amounted to 8.0±2.48 and the “Voiding efficiency (VE)” value is listed as 3.31±1.83%. In data set [3] (acute dosing 2 mg/kg in chronically treated rats, p<0.05), the “Bladder capacity after acute dosing” value is “may decrease bladder capacities”. Besides, the “Neurogenic detrusor overactivity (NDO), post-hoc analysis” value in data set [3] (extended treatment, p<0.05) is recorded as “may decrease NDO”. For the same substance, in data set [4] (2.0 mg/kg), the “Sensory function / allodynia (von Frey hair test)” value is on record as “trend toward improved sensory function”. Further, the “Animals capable of consistently taking weight-supported steps (BMS)” value in data set [4] (2.0 mg/kg IV 30 min, IP 3 h, 6 h, then every 24 h for three days, 21 days after injury, p<0.05) was “significantly more animals”. Also, in data set [4] (2.0 mg/kg, 21 days after injury, p<0.05), the “Animals performing coordinated locomotion (BMS)” value is recorded as “significantly more animals”. Also, in data set [1], the “Neuroprotection (reduction in neuronal LDH release)” value is on record as 19.14%. Moreover, in data set [5], the “Brain exposure relative to previous peptides” value is “up to five times higher than previous peptides”; the “Histological and behavioral outcomes following acquired brain injury” value is “improves both histological and behavioral outcomes”. The “Total exposure (AUC0-48), spinal cord vs brain” value in data set [6] (0-48 hours) is on record as “spinal cord had greater total exposure to CN-105 than the brain”. Moreover, the “Tissue retention at 24 hours (C24/Cmax x 100), spinal cord vs brain” value in data set [6] (24 hours post injection) was “spinal cord retained a higher percentage of CN-105 than the brain”. In addition, the “Time of peak concentration in the spinal cord” value in data set [6] (spinal cord) was determined as 30 min. In addition, the “Binding to α7 nicotinic acetylcholine receptors” value in data set [7] is “binds”. Further, the “Suppression of LPS-induced inflammation (TNFα)” value in data set [8] is given as “suppress LPS-induced inflammation”.
Take Ac-RARRL-NH2 [RL-S-2]: the “Neuroprotection (reduction in neuronal LDH release)” value in data set [1] is reported as −5.23%.
Regarding Ac-RHKKL-NH2 [RL-S-1], in data set [1], the “Neuroprotection (reduction in neuronal LDH release)” value is −2.85%.
